Four molecules from ChEMBL document CHEMBL5365457, “Selective HDAC3 Inhibitors with Potent In Vivo Antitumor Efficacy against Triple-Negative Breast Cancer” (J Med Chem, 2023) can be followed below.

For orientation: inhibition means the relative decrease from the control value, in per cent. For orientation: IC50 means the point on the concentration scale where inhibition reaches its midpoint.

One data set addresses Histone deacetylase 3 (Homo sapiens, UniProt O15379). Description: Inhibition of human recombinant HDAC3 at 1 uM measured after 30 mins by fluorescence based microplate assay relative to control.
A further data set has as its system MCF7. In words: Cytotoxicity against human MCF7 cells assessed as inhibition of cell growth incubated for 72 hrs by MTT assay. The data set is classed as functional, cell-based. The settings on record: MCF7, 72 h. For orientation: Formazan colour is commonly taken as a measure of viable cells.
A further data set deals with 4T1. Description: Cytotoxicity against mouse 4T1 cells assessed as inhibition of cell growth incubated for 72 hrs by MTT assay. The data set is classed as functional, cell-based. As to conditions: 4T1, 72 h.
The next data set has as its system MDA-MB-231. Description: Cytotoxicity against human MDA-MB-231 cells assessed as inhibition of cell growth incubated for 72 hrs by MTT assay. The data set is classed as functional, cell-based. As to conditions: MDA-MB-231, 72 h.
The test system of the next data set is MDA-MB-453. Description: Cytotoxicity against human MDA-MB-453 cells assessed as inhibition of cell growth incubated for 72 hrs by MTT assay. The data set is classed as functional, cell-based. As to conditions: MDA-MB-453, 72 h.
Data set [1] in a line: Cytotoxicity against human MCF-10A cells assessed as inhibition of cell growth incubated for 72 hrs by MTT assay. The data set is classed as toxicity, cell-based.
Data set [2] in a line: Cytotoxicity against human HEK293 cells assessed as inhibition of cell growth incubated for 72 hrs by MTT assay. In kind it is toxicity, cell-based.
The nature of data set [3]: Cytotoxicity against human HCEC cells assessed as inhibition of cell growth incubated for 72 hrs by MTT assay. In kind it is toxicity, cell-based. The settings on record: for IC50 at 72 h: human, HCEC cells.
Data set [4] is described as follows: Selectivity ratio of IC50 for cytotoxicity against human MCF-10A cells assessed as inhibition of cell growth to IC50 for cytotoxicity against human MCF7 cells assessed as inhibition of cell growth. In kind it is toxicity, cell-based. As to conditions: MCF-10A cells versus MCF7 cells, read-out: Ratio IC50.
A short description of data set [5]: Selectivity ratio of IC50 for cytotoxicity against human MCF-10A cells assessed as inhibition of cell growth to IC50 for cytotoxicity against […] cells assessed as inhibition of cell growth. As to conditions: MCF-10A cells versus 4T1 cells, read-out: Ratio IC50. In kind it is toxicity, cell-based.
The nature of data set [6]: Selectivity ratio of IC50 for cytotoxicity against human MCF-10A cells assessed as inhibition of cell growth to IC50 for cytotoxicity against human MDA-MB-231 cells assessed as inhibition of cell growth. In kind it is toxicity, cell-based. The settings on record: MCF-10A cells versus MDA-MB-231 cells, read-out: Ratio IC50.
Data set [7] can be described thus: Selectivity ratio of IC50 for cytotoxicity against human MCF-10A cells assessed as inhibition of cell growth to IC50 for cytotoxicity against human MDA-MB-453 cells assessed as inhibition of cell growth. The data set is classed as toxicity, cell-based. As to conditions: MCF-10A cells versus MDA-MB-453 cells, read-out: Ratio IC50.
Data set [8] in a line: Selectivity ratio of IC50 for cytotoxicity against human HEK293 cells assessed as inhibition of cell growth to IC50 for cytotoxicity against human MCF7 cells assessed as inhibition of cell growth. The data set is classed as toxicity, cell-based. The settings on record: HEK293 cells versus MCF7 cells, read-out: Ratio IC50.
Data set [9] is described as follows: Selectivity ratio of IC50 for cytotoxicity against human HEK293 cells assessed as inhibition of cell growth to IC50 for cytotoxicity against mouse 4T1 cells assessed as inhibition of cell growth. In kind it is toxicity, cell-based. The settings on record: HEK293 cells versus 4T1 cells, read-out: Ratio IC50.
A short description of data set [10]: Selectivity ratio of IC50 for cytotoxicity against human HEK293 cells assessed as inhibition of cell growth to IC50 for cytotoxicity against human MDA-MB-231 cells assessed as inhibition of cell growth. The data set is classed as toxicity, cell-based. As to conditions: HEK293 cells versus MDA-MB-231 cells, read-out: Ratio IC50.
Data set [11] can be described thus: Selectivity ratio of IC50 for cytotoxicity against human HEK293 cells assessed as inhibition of cell growth to IC50 for cytotoxicity against human MDA-MB-453 cells assessed as inhibition of cell growth. In kind it is toxicity, cell-based. The settings on record: HEK293 cells versus MDA-MB-453 cells, read-out: Ratio IC50.
Data set [12] in a line: Selectivity ratio of IC50 for cytotoxicity against human HCEC cells assessed as inhibition of cell growth to IC50 for cytotoxicity against human MCF7 cells assessed as inhibition of cell growth. In kind it is toxicity, cell-based. The settings on record: HCEC cells versus MCF7 cells, read-out: Ratio IC50.
Data set [13] is described as follows: Selectivity ratio of IC50 for cytotoxicity against human HCEC cells assessed as inhibition of cell growth to IC50 for cytotoxicity against mouse 4T1 cells assessed as inhibition of cell growth. In kind it is toxicity, cell-based. As to conditions: HCEC cells versus 4T1 cells, read-out: Ratio IC50.
The nature of data set [14]: Selectivity ratio of IC50 for cytotoxicity against human HCEC cells assessed as inhibition of cell growth to IC50 for cytotoxicity against human MDA-MB-231 cells assessed as inhibition of cell growth. In kind it is toxicity, cell-based. The settings on record: HCEC cells versus MDA-MB-231 cells, read-out: Ratio IC50.
Data set [15] in a line: Selectivity ratio of IC50 for cytotoxicity against human HCEC cells assessed as inhibition of cell growth to IC50 for cytotoxicity against human MDA-MB-453 cells assessed as inhibition of cell growth. As to conditions: HCEC cells versus MDA-MB-453 cells, read-out: Ratio IC50. The data set is classed as toxicity, cell-based.

Sequence of Histone deacetylase 3 (O15379 whole entry): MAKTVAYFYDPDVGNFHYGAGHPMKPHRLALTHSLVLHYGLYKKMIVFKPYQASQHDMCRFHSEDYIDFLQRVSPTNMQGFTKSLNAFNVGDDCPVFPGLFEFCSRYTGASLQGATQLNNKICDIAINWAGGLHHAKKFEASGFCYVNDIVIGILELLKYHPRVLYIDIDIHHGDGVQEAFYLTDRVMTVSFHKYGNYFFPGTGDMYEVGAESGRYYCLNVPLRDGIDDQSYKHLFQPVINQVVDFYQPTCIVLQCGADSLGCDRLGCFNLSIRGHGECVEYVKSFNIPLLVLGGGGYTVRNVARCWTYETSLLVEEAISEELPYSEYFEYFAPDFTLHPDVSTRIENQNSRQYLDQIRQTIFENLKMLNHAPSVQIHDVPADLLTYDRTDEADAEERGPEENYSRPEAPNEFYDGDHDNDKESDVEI

As to `CCCCNNC(=O)c1cnc(NCc2ccc(OC)cc2)cn1`, the inhibition at Histone deacetylase 3 was more than 70%. The IC50 stood at 2.59 µM in the data set on MCF7; 0.93 µM in the data set on 4T1; 0.97 µM in the data set on MDA-MB-231; 2.68 µM with MDA-MB-453; 1370 µM in [3] (hcec). In addition, the IC50 at 72 h in data set [1] stood at 109 µM; in [2] it was 107 µM. For the same molecule, the selectivity ratio in [4], in [5], in [6], in data set [7], in data set [8] and in data set [9] was more than 40 throughout. For the same molecule, the selectivity ratio in data set [10], in data set [11], in [12], in [13], in data set [14] and in data set [15] was more than 40 throughout.

With `CCCNNC(=O)c1cnc(Nc2ccccc2)cn1`, the inhibition on Histone deacetylase 3 was more than 70%. Besides, the IC50 in the data set with MCF7 stood at 3.28 µM; with 4T1, 2.76 µM; in the data set with MDA-MB-231 it was 1.88 µM; in the data set on MDA-MB-453, 5.44 µM. The IC50 at 72 h in [1] was found to be 205 µM; in data set [2], 218 µM; in [3], 196 µM. Further, the selectivity ratio in [4], in data set [5], in data set [6], in data set [7], in data set [8] and in [9] was more than 40 in each case. Also, the selectivity ratio in data set [10], in [11], in data set [12], in data set [13], in data set [14] and in data set [15] was more than 40 throughout.

For `CCCNNC(=O)c1cnc(N)cn1`, the IC50 in the data set on MCF7 is 0.99 µM; in the data set with 4T1, 1.08 µM; in the data set with MDA-MB-231, 0.88 µM; in the data set with MDA-MB-453, 2.43 µM. For the same molecule, the IC50 at 72 h in [1] worked out at 139 µM; in data set [2] it was 141 µM; in data set [3], 220 µM. In addition, the selectivity ratio in [4], in data set [5], in data set [6], in data set [7], in data set [8] and in data set [9] was more than 40 throughout. For the same molecule, the selectivity ratio in data set [10], in data set [11], in [12], in data set [13], in [14] and in data set [15] was more than 40 each time.

Turning to `CCCNNC(=O)c1cnc(Nc2cccc3ccccc23)cn1`, the IC50 in the data set on MCF7 worked out at 1.51 µM; in the data set with 4T1 it was 0.94 µM; in the data set on MDA-MB-231, 1.74 µM; in the data set on MDA-MB-453, 2.89 µM. Moreover, the IC50 at 72 h amounted to 112 µM in data set [1], 116 µM in data set [2] and 126 µM in data set [3]. In addition, the selectivity ratio in [4], in [5], in data set [6], in data set [7], in [8] and in data set [9] was more than 40 each time. The selectivity ratio in data set [10], in data set [11], in data set [12], in data set [13], in data set [14] and in [15] was more than 40 throughout.
